Measurements from the supplement of paper PMC12533247.

What was measured:
[1] = tested on: primary dermal fibroblasts; test: % change in live cells vs DMSO control; higher = less cytotoxic; settings: time (h post treatment): 48
Procedure: (§1)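 Cytotoxicity in uninfected 2D primary donor keratinocytes (20 h post treatment) and fibroblasts (48 h post treatment), measured with NucSpot live/dead dyes on IncuCyte. Live cells are normalised to the 0.2% DMSO control and shown as % change. Three biological replicates for each of donors 3, 4 and 5.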

[2] = tested on: primary keratinocytes; test: as above; settings: time (h post treatment): 20
Procedure: as §1

[3] = tested on: HSV-1 K26-GFP infected primary human skin cells; test: % change of HSV-1 GFP signal vs untreated infected cells; higher = less antiviral inhibition
Procedure: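 2D primary donor-derived keratinocytes (read at 20 hpi) and donor-matched dermal fibroblasts (read at 48 hpi) infected with GFP-HSV-1 K26 at MOI 1 and treated 1 h later with compound dilutions. IncuCyte GFP integrated intensity is normalised by subtracting mock-infected wells and dividing by untreated infected wells, shown as % change (-100 = full inhibition).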

[4] = tested on: HSV-1 K26-GFP infected 3D skin equivalent; test: % change of tdTomato fibroblast signal relative to infected DMSO control; higher = higher signal (negative = inhibition / toxicity); settings: time (h post infection): 48
Procedure: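 Triplicate dose-response (0.04 to 10 uM) of 11 top compounds in 3D bioprinted skin equivalents (submerged and ALI models) infected with GFP-HSV-1 K26 at MOI 0.1 and fixed at 48 hpi. GFP (virus) and tdTomato (fibroblast viability) signals are normalised to per-plate controls.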

Cc1cccc(C)c1N(CC(=O)Nc1ccc(-c2ncon2)cc1)C(=O)C1CCS(=O)(=O)CC1 [Amenamevir]
Settings | % change in live cells, donor: 3 [%] | % change in live cells, donor: 4 [%] | % change in live cells, donor: 5 [%] | % change of tdTomato fibroblast signal, model: ALI [%] | % change of tdTomato fibroblast signal, model: submerged [%]
[1], 0.082305 µM | -6.67 | 5 | 2.33 | – | –
[1], 0.246914 µM | -7 | 4.67 | 4.33 | – | –
[1], 0.740741 µM | -7.33 | 2.67 | 3 | – | –
[1], 2.22222 µM | -6 | 5 | 0 | – | –
[1], 6.66667 µM | -6 | 6.67 | -3 | – | –
[1], 20 µM | -6.33 | 4.67 | -4.67 | – | –
[1], 60 µM | -6.33 | 0 | -23.3 | – | –
[2], 0.082305 µM | -5 | 8.33 | -7.67 | – | –
[2], 0.246914 µM | -8.33 | -12.7 | -7 | – | –
[2], 0.740741 µM | -12 | -6 | -5.67 | – | –
[2], 2.22222 µM | -3.33 | -3.33 | -5.33 | – | –
[2], 6.66667 µM | 1.67 | -36.7 | -1.67 | – | –
[2], 20 µM | -32.7 | -42 | 5.67 | – | –
[2], 60 µM | -70.3 | -63.3 | -5 | – | –
[4], 0.041152 µM | – | – | – | 0.354 | 12
[4], 0.123457 µM | – | – | – | -2.14 | -5.09
[4], 0.37037 µM | – | – | – | -5.49 | -8.61
[4], 1.111111 µM | – | – | – | -6.26 | -5
[4], 3.33333 µM | – | – | – | -5.93 | 2.99
[4], 10 µM | – | – | – | -8.92 | 5.91

% change of HSV-1 GFP signal [%], [3]
Settings | 0.001 µM | 0.003 µM | 0.0091 µM | 0.0274 µM | 0.0823 µM | 0.2469 µM | 0.7407 µM | 2.2222 µM | 6.6667 µM | 20 µM
cell type: primary dermal fibroblasts, donor: 5, time (h post infection): 48 | -4.89 | -8.89 | -13.3 | -23.6 | -42.3 | -59.7 | -74.9 | -91.3 | -98.98 | -99.775
cell type: primary keratinocytes, donor: 3, time (h post infection): 20 | 13.9 | 12.5 | 4.38 | 0.743 | -11.4 | -38.9 | -51.9 | -68 | -78.6 | -83.4
cell type: primary keratinocytes, donor: 4, time (h post infection): 20 | -3.16 | -0.75 | -11.8 | -15.3 | -42.6 | -80.2 | -87.1 | -93.7 | -95.2 | -99.17
cell type: primary keratinocytes, donor: 5, time (h post infection): 20 | 1.08 | 2.94 | -1.03 | -12.8 | -31.3 | -49.2 | -67.5 | -93.4 | -97.9 | -99.54

COc1ccc(-c2nc(N3CCOCC3)c3sc(CN(C)c4ncc(C(=O)NO)cn4)cc3n2)cn1 [Fimepinostat]
Settings | % change in live cells, donor: 3 [%] | % change in live cells, donor: 4 [%] | % change in live cells, donor: 5 [%] | % change of tdTomato fibroblast signal, model: ALI [%] | % change of tdTomato fibroblast signal, model: submerged [%]
[1], 0.082305 µM | -29.3 | -13 | 6.67 | – | –
[1], 0.246914 µM | -34.3 | -33.3 | -8.67 | – | –
[1], 0.740741 µM | -41.3 | -44 | -23.3 | – | –
[1], 2.22222 µM | -56 | -67.3 | -56.3 | – | –
[1], 6.66667 µM | -61 | -60.3 | -60 | – | –
[1], 20 µM | -64.7 | -56.3 | -68 | – | –
[1], 60 µM | -75 | -60.3 | -79.3 | – | –
[2], 0.082305 µM | -23.3 | -5.33 | -8 | – | –
[2], 0.246914 µM | -39.7 | -20.7 | -13.7 | – | –
[2], 0.740741 µM | -38.7 | -34.3 | -38 | – | –
[2], 2.22222 µM | -41.3 | -59 | -58.7 | – | –
[2], 6.66667 µM | -42.3 | -79.3 | -67 | – | –
[2], 20 µM | -76 | -99.7 | -80.7 | – | –
[2], 60 µM | -95.3 | -94.33 | -95.33 | – | –
[4], 0.041152 µM | – | – | – | -7.82 | 12.3
[4], 0.123457 µM | – | – | – | -14 | 9.59
[4], 0.37037 µM | – | – | – | -3.36 | 12.7
[4], 1.111111 µM | – | – | – | -5.66 | 8.55
[4], 3.33333 µM | – | – | – | -20.2 | -1.39
[4], 10 µM | – | – | – | -11 | -3.36

% change of HSV-1 GFP signal [%], [3]
Settings | 0.003 µM | 0.0091 µM | 0.0274 µM | 0.0823 µM | 0.2469 µM | 0.7407 µM | 2.2222 µM | 6.6667 µM | 20 µM | 60 µM
cell type: primary dermal fibroblasts, donor: 5, time (h post infection): 48 | -12.8 | -13.7 | -14.2 | -12.3 | -12 | -18.4 | -25.6 | -32.6 | -34.1 | -28.4
cell type: primary keratinocytes, donor: 3, time (h post infection): 20 | 6.27 | -3.11 | 2.91 | 1.02 | -16.3 | -33.2 | -41.3 | -43 | -64.7 | -48.6
cell type: primary keratinocytes, donor: 4, time (h post infection): 20 | -14.2 | -25.2 | -17.4 | -25 | -33 | -64.8 | -69.2 | -76.4 | -89.2 | -72.7
cell type: primary keratinocytes, donor: 5, time (h post infection): 20 | -6.73 | -26.4 | -15.1 | -24.8 | -44.7 | -48 | -58.2 | -64.6 | -70.5 | -57.8

CC(C)c1cnn2c(NCc3ccccc3-n3cccn3)nc(OC3CCCNC3)nc12 (stereo unspecified) [LDC4297]
Settings | % change in live cells, donor: 3 [%] | % change in live cells, donor: 4 [%] | % change in live cells, donor: 5 [%] | % change of tdTomato fibroblast signal, model: ALI [%] | % change of tdTomato fibroblast signal, model: submerged [%]
[1], 0.082305 µM | -12.3 | -2.33 | -0.667 | – | –
[1], 0.246914 µM | -11.3 | -6.33 | -2.33 | – | –
[1], 0.740741 µM | -17.3 | -5.33 | -7 | – | –
[1], 2.22222 µM | -22.3 | -5 | -16.3 | – | –
[1], 6.66667 µM | -23 | -7.33 | -22.7 | – | –
[1], 20 µM | -24.3 | -3 | -27.3 | – | –
[1], 60 µM | -30.3 | 0.667 | -33 | – | –
[2], 0.082305 µM | -12 | 1 | -10.3 | – | –
[2], 0.246914 µM | -41.3 | -17.7 | -17 | – | –
[2], 0.740741 µM | -36 | -37 | -27.7 | – | –
[2], 2.22222 µM | -56.3 | -70 | -51.7 | – | –
[2], 6.66667 µM | -75 | -98.67 | -94.33 | – | –
[2], 20 µM | -80.3 | -97.7 | -95 | – | –
[2], 60 µM | -90 | -99.67 | -95.3 | – | –
[4], 0.041152 µM | – | – | – | -1.16 | 7.31
[4], 0.123457 µM | – | – | – | -6.21 | -0.0281
[4], 0.37037 µM | – | – | – | -7.32 | -5.4
[4], 1.111111 µM | – | – | – | -9.38 | 8.7
[4], 3.33333 µM | – | – | – | -3.18 | 7.79
[4], 10 µM | – | – | – | 1.92 | -14.8

% change of HSV-1 GFP signal [%], [3]
Settings | 0.003 µM | 0.0091 µM | 0.0274 µM | 0.0823 µM | 0.2469 µM | 0.7407 µM | 2.2222 µM | 6.6667 µM | 20 µM | 60 µM
cell type: primary dermal fibroblasts, donor: 5, time (h post infection): 48 | -4.88 | -5.58 | -6.29 | -17.5 | -44.9 | -60.2 | -78.8 | -97.65 | -99.964 | -99.913
cell type: primary keratinocytes, donor: 3, time (h post infection): 20 | -0.466 | 9.74 | -1.73 | 2.24 | -13.6 | -24.8 | -42.6 | -99.02 | -99.87 | -99.984
cell type: primary keratinocytes, donor: 4, time (h post infection): 20 | -19.1 | -22.2 | -23.4 | -17.1 | -35.8 | -61 | -75.3 | -99.7 | -99.973 | -100.04
cell type: primary keratinocytes, donor: 5, time (h post infection): 20 | – | 7.64 | 1.09 | 0.186 | -10 | -17.4 | -37.8 | -99.64 | -99.946 | -99.969
